# Reference: patent US9738655B2, “Tetrahydroisoquinolines containing substituted azoles as factor XIa inhibitors” (BRISTOL-MYERS SQUIBB COMPANY, priority 2013, dated 2017)
# Counter-ions that a name gives are not always drawn. Like-named read-outs stand apart in the source and are kept apart here.
# What was measured:
# [1] = molecular target: purified human plasma kallikrein (Homo sapiens (Human), UniProt P03952); assay: Plasma kallikrein enzyme inhibition assay (chromogenic substrate S-2302); type: biochemical
# [2] = molecular target: purified human Factor XIa (Homo sapiens (Human), UniProt P03951); assay: Factor XIa enzyme inhibition assay (chromogenic substrate S-2366)
# [3] = read-out: Factor XIa Ki, measured at 25° C.
# [4] = measured at 25° C. (no asterisk)
# Sequence of purified human plasma kallikrein (P03952 391-638): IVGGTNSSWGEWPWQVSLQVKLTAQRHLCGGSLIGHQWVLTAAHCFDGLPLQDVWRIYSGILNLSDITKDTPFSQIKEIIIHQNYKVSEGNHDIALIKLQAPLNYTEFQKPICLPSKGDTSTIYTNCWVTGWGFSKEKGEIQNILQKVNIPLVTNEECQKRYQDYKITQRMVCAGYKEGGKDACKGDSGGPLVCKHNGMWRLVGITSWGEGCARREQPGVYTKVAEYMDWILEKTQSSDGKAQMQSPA
# Sequence of purified human plasma kallikrein (P03952 20-390 partner): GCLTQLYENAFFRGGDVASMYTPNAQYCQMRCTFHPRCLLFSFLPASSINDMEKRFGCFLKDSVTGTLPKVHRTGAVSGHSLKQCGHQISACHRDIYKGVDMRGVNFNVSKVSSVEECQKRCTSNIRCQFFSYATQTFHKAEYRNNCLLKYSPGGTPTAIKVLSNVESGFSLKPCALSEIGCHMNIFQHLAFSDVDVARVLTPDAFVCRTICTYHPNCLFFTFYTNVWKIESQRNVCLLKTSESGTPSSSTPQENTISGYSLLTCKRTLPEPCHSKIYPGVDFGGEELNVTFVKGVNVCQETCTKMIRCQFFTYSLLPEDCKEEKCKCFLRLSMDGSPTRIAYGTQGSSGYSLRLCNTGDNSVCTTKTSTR
# Sequence of purified human Factor XIa (P03951 388-625): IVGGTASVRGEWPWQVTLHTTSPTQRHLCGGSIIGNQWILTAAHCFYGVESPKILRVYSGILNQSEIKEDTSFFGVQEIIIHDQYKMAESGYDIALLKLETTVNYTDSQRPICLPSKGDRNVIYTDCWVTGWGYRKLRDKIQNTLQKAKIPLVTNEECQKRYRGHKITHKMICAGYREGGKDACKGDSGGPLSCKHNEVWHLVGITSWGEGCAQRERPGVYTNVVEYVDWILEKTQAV
# Sequence of purified human Factor XIa (P03951 19-387 partner): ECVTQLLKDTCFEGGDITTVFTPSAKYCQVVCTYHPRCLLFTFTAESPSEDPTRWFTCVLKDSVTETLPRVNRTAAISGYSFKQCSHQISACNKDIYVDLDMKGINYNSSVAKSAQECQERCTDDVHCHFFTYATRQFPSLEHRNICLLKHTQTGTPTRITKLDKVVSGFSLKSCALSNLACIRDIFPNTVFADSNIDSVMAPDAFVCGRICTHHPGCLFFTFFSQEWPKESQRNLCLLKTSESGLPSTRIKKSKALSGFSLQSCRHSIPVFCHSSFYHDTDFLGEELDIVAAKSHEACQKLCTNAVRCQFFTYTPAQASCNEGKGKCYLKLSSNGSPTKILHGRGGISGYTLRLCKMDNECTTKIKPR
Ki ([1]; measured at 37° C. (*)) [nM],"Ki [2, 3] [nM]","Ki [1, 4] [nM]",Ki [2] [nM],SMILES
,,16.2,< 5,"Cn1ccc(-c2cccc3c2CCN(C(=O)c2cn(-c4cccc(Cl)c4F)nn2)C3C(=O)Nc2ccc(C(=O)O)cc2)n1 (centres unmarked) [Example 43, 4-(2-(1-(3-chloro-2-fluorophenyl)-1H-1,2,3-triazole-4-carbonyl)-5-(1-methyl-1H-pyrazol-3-yl)-1,2,3,4-tetrahydroisoquinoline-1-carboxamido)benzoic acid]"
,< 5,3.28,,"CNC(=O)c1ccc(-c2cccc3c2CCN(C(=O)c2cn(-c4cccc(Cl)c4F)nn2)[C@@H]3C(=O)Nc2ccc(C(=O)O)cc2)cn1 [Example 44, (S)-4-(2-(1-(3-Chloro-2-fluorophenyl)-1H-1,2,3-triazole-4-carbonyl)-5-(6-(methylcarbamoyl)pyridin-3-yl)-1,2,3,4-tetrahydroisoquinoline-1-carboxamido)benzoic acid, TFA salt]"
,20.6,364,,"CNC(=O)c1ccc(-c2cccc3c2CCN(C(=O)c2cn(-c4cccc(Cl)c4F)nn2)[C@H]3C(=O)Nc2ccc(C(=O)O)cc2)cn1 [Example 45, (R)-4-(2-(1-(3-Chloro-2-fluorophenyl)-1H-1,2,3-triazole-4-carbonyl)-5-(6-(methylcarbamoyl)pyridin-3-yl)-1,2,3,4-tetrahydroisoquinoline-1-carboxamido)benzoic acid, TFA salt]"
,,452,89.6,"CN(C)C1CCN(c2cccc3c2CCN(C(=O)c2cn(-c4cccc(Cl)c4F)nn2)[C@H]3C(=O)Nc2ccc(C(=O)O)cc2)CC1 [Example 48, (R)-4-(2-(1-(3-chloro-2-fluorophenyl)-1H-1,2,3-triazole-4-carbonyl)-5-(4-(dimethylamino)piperidin-1-yl)-1,2,3,4-tetrahydroisoquinoline-1-carboxamido)benzoic acid, bis-TFA salt]"
,< 5,4.94,,"CN(C)C1CCN(c2cccc3c2CCN(C(=O)c2cnn(-c4cccc(Cl)c4F)c2)C3C(=O)Nc2ccc(C(=O)O)cc2)CC1 (centres unmarked) [Example 50, 4-(2-(1-(3-chloro-2-fluorophenyl)-1H-pyrazole-4-carbonyl)-5-(4-(dimethylamino)piperidin-1-yl)-1,2,3,4-tetrahydroisoquinoline-1-carboxamido)benzoic acid, bis-TFA salt]"
,< 5,1.21,,"CN(C)C1CCN(c2cccc3c2CCN(C(=O)c2cn(-c4cccc(Cl)c4F)cn2)C3C(=O)Nc2ccc(C(=O)O)cc2)CC1 (centres unmarked) [Example 53, 4-(2-(1-(3-chloro-2-fluorophenyl)-1H-imidazole-4-carbonyl)-5-(4-(dimethylamino)piperidin-1-yl)-1,2,3,4-tetrahydroisoquinoline-1-carboxamido)benzoic acid, bis-TFA salt]"
,< 5,5.6,,"CN(C)C(=O)C1CCN(c2cccc3c2CCN(C(=O)c2cn(-c4cccc(Cl)c4F)nn2)C3C(=O)Nc2ccc(C(=O)O)cc2)CC1 (centres unmarked) [Example 56, 4-(2-(1-(3-chloro-2-fluorophenyl)-1H-1,2,3-triazole-4-carbonyl)-5-(4-(dimethylcarbamoyl)piperidin-1-yl)-1,2,3,4-tetrahydroisoquinoline-1-carboxamido)benzoic acid, TFA salt]"
,< 5,10.1,,"CN(C)C(=O)C1CCN(c2cccc3c2CCN(C(=O)c2cnn(-c4cccc(Cl)c4F)c2)C3C(=O)Nc2ccc(C(=O)O)cc2)CC1 (centres unmarked) [Example 59, 4-(2-(1-(3-chloro-2-fluorophenyl)-1H-pyrazole-4-carbonyl)-5-(4-(dimethylcarbamoyl)piperidin-1-yl)-1,2,3,4-tetrahydroisoquinoline-1-carboxamido)benzoic acid, TFA salt]"
,< 5,4.7,,"CC(C)c1nnc2n1CCN(c1cccc3c1CCN(C(=O)c1cn(-c4cccc(Cl)c4F)nn1)C3C(=O)Nc1ccc(C(=O)O)cc1)C2 (centres unmarked) [Example 64, 4-(2-(1-(3-chloro-2-fluorophenyl)-1H-1,2,3-triazole-4-carbonyl)-5-(3-isopropyl-5,6-dihydro-[1,2,4]triazolo[4,3-a]pyrazin-7(8H)-yl)-1,2,3,4-tetrahydroisoquinoline-1-carboxamido)benzoic acid, TFA salt]"
,18.9,260,,"CC(C)c1nnc2n1CCN(c1cccc3c1CCN(C(=O)c1cn(-c4cccc(Cl)c4F)nn1)[C@H]3C(=O)Nc1ccc(C(=O)O)cc1)C2 [Example 65, (R)-4-(2-(1-(3-chloro-2-fluorophenyl)-1H-1,2,3-triazole-4-carbonyl)-5-(3-isopropyl-5,6-dihydro-[1,2,4]triazolo[4,3-a]pyrazin-7(8H)-yl)-1,2,3,4-tetrahydroisoquinoline-1-carboximido)benzoic acid, TFA salt]"

# Continued, compound first:
SMILES,Ki ([1]; measured at 37° C. (*)) [nM],"Ki [2, 3] [nM]","Ki [1, 4] [nM]",Ki [2] [nM]
"COC(=O)c1ccc(NC(=O)[C@H]2c3cccc(-c4cncnc4)c3CCN2C(=O)[C@H]2CC(c3cccc(Cl)c3F)=NO2)cc1 [Example 29, Methyl 4-((R)-2-((R)-3-(3-chloro-2-fluorophenyl)-4,5-dihydroisoxazole-5-carbonyl)-5-(pyrimidin-5-yl)-1,2,3,4-tetrahydroisoquinoline-1-carboxamido)benzoate]",1200,58.9,,
"Nc1ncc(-c2cccc3c2CCN(C(=O)c2cn(-c4cccc(Cl)c4F)nn2)C3C(=O)Nc2ccc(C(=O)O)cc2)cn1 (centres unmarked) [Example 30, 4-(5-(2-aminopyrimidin-5-yl)-2-(1-(3-chloro-2-fluorophenyl)-1H-1,2,3-triazole-4-carbonyl)-1,2,3,4-tetrahydroisoquinoline-1-carboxamido)benzoic acid, TFA salt]",,< 5,15.7,
"COc1ncc(-c2cccc3c2CCN(C(=O)c2cn(-c4cccc(Cl)c4F)nn2)C3C(=O)Nc2ccc(C(=O)O)cc2)cn1 (centres unmarked) [Example 31, 4-(2-(1-(3-chloro-2-fluorophenyl)-1H-1,2,3-triazole-4-carbonyl)-5-(2-methoxypyrimidin-5-yl)-1,2,3,4-tetrahydroisoquinoline-1-carboxamido)benzoic acid]",,,19.9,< 5
"N#Cc1ncc(-c2cccc3c2CCN(C(=O)c2cn(-c4cccc(Cl)c4F)nn2)C3C(=O)Nc2ccc(C(=O)O)cc2)cn1 (centres unmarked) [Example 32, 4-(2-(1-(3-chloro-2-fluorophenyl)-1H-1,2,3-triazole-4-carbonyl)-5-(2-cyanopyrimidin-5-yl)-1,2,3,4-tetrahydroisoquinoline-1-carboxamido)benzoic acid]",,,17.5,< 5
"O=C(O)c1ccc(NC(=O)C2c3cccc(-c4cccnc4)c3CCN2C(=O)c2cn(-c3cccc(Cl)c3F)nn2)cc1 (centres unmarked) [Example 33, 4-(2-(1-(3-chloro-2-fluorophenyl)-1H-1,2,3-triazole-4-carbonyl)-5-(pyridin-3-yl)-1,2,3,4-tetrahydroisoquinoline-1-carboxamido)benzoic acid, TFA salt]",,< 5,9.54,
"O=C(O)c1ccc(NC(=O)C2c3cccc(-c4cnc(O)nc4)c3CCN2C(=O)c2cn(-c3cccc(Cl)c3F)nn2)cc1 (centres unmarked) [Example 34, 4-(2-(1-(3-chloro-2-fluorophenyl)-1H-1,2,3-triazole-4-carbonyl)-5-(2-hydroxypyrimidin-5-yl)-1,2,3,4-tetrahydroisoquinoline-1-carboxamido)benzoic acid]",,,0.46,< 5
"O=C(O)c1ccc(NC(=O)C2c3cccc(-c4cncc(F)c4)c3CCN2C(=O)c2cn(-c3cccc(Cl)c3F)nn2)cc1 (centres unmarked) [Example 35, 4-(2-(1-(3-chloro-2-fluorophenyl)-1H-1,2,3-triazole-4-carbonyl)-5-(5-fluoropyridin-3-yl)-1.2,3,4-tetrahydroisoquinoline-1-carboxamido)benzoic acid, TFA salt]",,< 5,22.9,
"COc1cncc(-c2cccc3c2CCN(C(=O)c2cn(-c4cccc(Cl)c4F)nn2)C3C(=O)Nc2ccc(C(=O)O)cc2)c1 (centres unmarked) [Example 36, 4-(2-(1-(3-chloro-2-fluorophenyl)-1H-1,2,3-triazole-4-carbonyl)-5-(5-methoxypyridin-3-yl)-1,2,3,4-tetrahydroisoquinoline-1-carboxamido)benzoic acid, TFA salt]",,< 5,26.7,
"CNC(=O)c1cncc(-c2cccc3c2CCN(C(=O)c2cn(-c4cccc(Cl)c4F)nn2)C3C(=O)Nc2ccc(C(=O)O)cc2)c1 (centres unmarked) [Example 37, 4-(2-(1-(3-chloro-2-fluorophenyl)-1H-1,2,3-triazole-4-carbonyl)-5-(5-(methylcarbamoyl)pyridin-3-yl)-1,2,3,4-tetrahydroisoquinoline-1-carboxamido)benzoic acid, TFA salt]",,< 5,12.9,
"Nc1ccc(-c2cccc3c2CCN(C(=O)c2cn(-c4cccc(Cl)c4F)nn2)C3C(=O)Nc2ccc(C(=O)O)cc2)cn1 (centres unmarked) [Example 39, 4-(5-(6-aminopyridin-3-yl)-2-(1-(3-chloro-2-fluorophenyl)-1H-1,2,3-triazole-4-carbonyl)-1,2,3,4-tetrahydroisoquinoline-1-carboxamido)benzoic acid, bis-TFA salt]",,< 5,2.63,
"O=C(O)c1ccc(NC(=O)C2c3cccc(-c4cn[nH]c4)c3CCN2C(=O)c2cn(-c3cccc(Cl)c3F)nn2)cc1 (centres unmarked) [Example 41, 4-(2-(1-(3-chloro-2-fluorophenyl)-1H-1,2,3-triazole-4-carbonyl)-5-(1H-pyrazol-4-yl)-1,2,3,4-tetrahydroisoquinoline-1-carboxamido)benzoic acid]",,,7.68,< 5
"Cn1nccc1-c1cccc2c1CCN(C(=O)c1cn(-c3cccc(Cl)c3F)nn1)C2C(=O)Nc1ccc(C(=O)O)cc1 (centres unmarked) [Example 42, 4-(2-(1-(3-chloro-2-fluorophenyl)-1H-1,2,3-triazole-4-carbonyl)-5-(1-methyl-1H-pyrazol-5-yl)-1,2,3,4-tetrahydroisoquinoline-1-carboxamido)benzoic acid]",,,13.1,< 5
